# Reference: article PMC8280143, “A novel dephosphorylation targeting chimera selectively promoting tau removal in tauopathies” (Signal Transduction and Targeted Therapy, 2021)
# Test system: MAP2
# Test: MAP2 level in primary neurons
# Assay type: cell-based
# Description: Cultured cells or hippocampus tissues were collected on ice, and homogenized with RIPA lysis buffer containing 50 mM Tris-HCl, 100 mM NaCl, 1% Triton X-100, 5 mM EDTA, and 1:100 PMSF, and then centrifuged at 12,000 × g for 20 min. The supernatant was collected for the analysis of soluble proteins. In some experiments, the pellets were further incubated with 8% SDS buffer at 37 °C and then ultrasound for 60 times to reach a complete resuspension for the analysis of insoluble tau. Protein concentration was measured through BCA assays (Thermo Fisher). Equal amount of protein from each sample were separated in SDS-PAGE gels, and then transferred onto nitrocellulose or 0.22 μm polyvinylidene fluoride membranes (Merck Millipore). […] Blots were visualized using ECL luminol reagent (P0018FS, Beyotime), and quantified using ImageJ software.
substance,measurement,setting,value
"(1) YQQYQDATADEQG, originates from the porcine β-tubulin 422–434 for recognizing and binding tau proteins.[5],[6] (2) GSGS, a linker for increasing the flexibility of the peptide.[15] (3) KKVAVVRTPPKSP, for recruiting PP2A-Bα,[16] and (4) RRRRRRRR [DEPTAC, DEPhosphorylation TArgeting Chimera; 38 amino acid residues, C185H314N72O56]",level of MAP2,"Supplementary Fig. S3, specificity to tau",did not change
same,selectivity to tau proteins,discussion,considerable selectivity to tau proteins
